“Also recorded” adds a separate entry of the source.
Legend:
YFP-apoE4-CFP = target: T1, YFP-apoE4-CFP (Homo sapiens, UniProt P02649, C130R); experiment: Cell-based FRET assay, YFP-apoE4-CFP; conditions: 5-20 μM; for ratio of FRET to CFP emission in the cells expressing YFP-apoE4-CFP: intracellular; for ratio of FRET to CFP emission in media of YFP-apoE4-CFP cells: medium
T1 construct: vector signal peptide (pFLAG-CMV3) (N); FLAG (N); expressed in transfected cells
Description: (§1) Xu et al. (2004) J. Biol. Chem. 279:25511-25516. FRET—the non-radioactive transfer of photon energy from an excited fluorophore (donor) to another fluorophore (acceptor)—occurs only when the donor and acceptor are in close proximity (<100 Å). Thus, this approach can be used to measure nanometer scale distances.
(§2) Xu et al. (2004) J. Biol. Chem. 279:25511-25516. The constructs are depicted schematically in FIG. 29.
(§3) Since the emission spectrum of CFP (460-520 nm) overlaps with the excitation spectrum of YFP (480-520 nm), FLEXstation (Molecular Devices) can be used to measure FRET in living cells expressing YFP-apoE3-CFP or YFP-apoE4-CFP in a high throughput manner. […] Thus, the ratio of FRET to CFP emission in cells expressing YFP-apoE4-CFP is much higher than that in those expressing YFP-apoE3-CFP (FIG. 31). […] Since the FLEXstation can read FRET in both cells and the culture media treated without or with various small molecules, this assay allows one to know whether a small molecule affects apoE4 domain interaction only in the medium (“medium FRET”) or also inside the cell (“intracellular FRET”). In addition, after measurement of the intracellular FRET, the cells can be incubated further with MTT to determine the cytotoxicity of the compound. Thus, the cell-based FRET assay can simultaneously provide three sets of data-intracellular FRET, medium FRET, and cytotoxicity.
(§4) Quantifying FRET in Transfected Neuro-2a Cells—Stably transfected Neuro-2a cells expressing YFP-apoE3-CFP or YFP-apoE4-CFP at similar levels were selected by fluorescence activated cell sorter (FACS). YFP and CFP images of transfected cells were acquired with the Meta Detector, and their fluorescence intensities were analyzed with the mounted computer. The FRET signal was calculated as the ratio of YFP to CFP fluorescence intensity under CFP excitation. For each YFP-apoE-CFP construct, the FRET signal was measured in at least 12 cells from different fields.
(§5) Quantifying FRET in the Culture Medium—Neuro-2a cells stably expressing YFP-apoE3-CFP or YFP-apoE4-CFP and wildtype cells were grown in T175 flasks to 90% confluence and incubated with serum-free minimum essential medium containing N2 supplement for 24 h. The conditioned medium (20 ml/flask) was concentrated about 20-fold with Centriplus-YM-10 concentrators (Amicon, Bedford, Mass.), dialyzed against PBS, illuminated at the CFP excitation wavelength (430 nm), and scanned for emission spectrum. The FRET signal was calculated as the ratio of emission at 525 nm (YFP) to that at 475 nm (CFP). Conditioned medium from cells expressing apoE3-CFP or apoE4-CFP was used to determine baseline fluorescence in the absence of FRET.

YFP-apoE3-CFP = target: T2, YFP-apoE3-CFP (Homo sapiens, UniProt P02649); experiment: Cell-based FRET assay, YFP-apoE3-CFP; conditions: for ratio of FRET to CFP emission in cells expressing YFP-apoE3-CFP: intracellular; for ratio of FRET to CFP emission in media of YFP-apoE3-CFP cells: medium
T2 construct: vector signal peptide (pFLAG-CMV3) (N); FLAG (N); expressed in transfected cells
T2 sequence (P02649 19-317): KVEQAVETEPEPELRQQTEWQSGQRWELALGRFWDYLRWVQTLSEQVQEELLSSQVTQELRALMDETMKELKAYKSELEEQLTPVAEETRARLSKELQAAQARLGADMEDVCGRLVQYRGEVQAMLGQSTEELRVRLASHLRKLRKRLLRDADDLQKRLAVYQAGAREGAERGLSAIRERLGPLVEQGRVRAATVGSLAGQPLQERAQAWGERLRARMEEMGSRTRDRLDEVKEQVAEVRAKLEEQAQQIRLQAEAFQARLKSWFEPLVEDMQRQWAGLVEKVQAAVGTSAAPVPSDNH
Description: as §1, §2, §3, §4, §5

YFP-apoE4-CFP cells = experiment: MTT cytotoxicity assay; format: cell-based, mouse; conditions: 5-10 μM
Description: as §3

Neuro-2a cells [1] = experiment: Aβ-induced lysosomal leakage (cytosolic β-hexosaminidase); format: cell-based, mouse
Description: The cytosolic fraction was obtained by ultracentrifugation, and the cytosolic β-hexosaminidase activity was measured.
Quantitation of the lysosomal enzyme β-hexosaminidase activity in the cytosol indicates lysosomal leakage. […] After incubation the cells were washed and cytosolic fractions were isolated as described in Materials and Methods. The enzymatic activity of β-hexosaminidase was assayed in 20 μg of cytosolic protein for each sample.
Lysosomal leakage was quantitated by assaying cytosolic 0-hexosaminidase activity. […] Conditioned media were prepared as described above. Apoptosis was quantitated by measuring DNA fragmentation.

Neuro-2a cells [2] = experiment: Aβ-induced apoptosis (DNA fragmentation assay); format: cell-based, mouse
Description: DNA Fragmentation Assay—DNA fragmentation of apoptotic cells was determined with Cell Death Detection ELISA kits (Roche, Indianapolis, Ind.).
FIG. 38. […] Control cells were not treated with Aβ1-42. Apoptotic cell death was measured with a DNA fragmentation assay. Values are the mean±S.D. of three separate experiments.
FIGS. 39A and 39B. […] Lysosomal leakage was quantitated by assaying cytosolic 0-hexosaminidase activity. […] Conditioned media were prepared as described above. Apoptosis was quantitated by measuring DNA fragmentation.

T1 sequence (P02649 19-317 C130R): as the sequence (P02649 19-317) above, with C112R counted along it

Q: What does the source list for `CCN(CC)c1ccc(/N=N\c2cc(S(=O)(=O)O)cc3cc(S(=O)(=O)O)cc(O)c23)c(O)c1` [GIND-28]?
A: ratio of FRET to CFP emission in the cells expressing YFP-apoE4-CFP (YFP-apoE4-CFP): decreased significantly; ratio of FRET to CFP emission in media of YFP-apoE4-CFP cells (YFP-apoE4-CFP): decreased significantly; ratio of FRET to CFP emission in cells expressing YFP-apoE3-CFP (YFP-apoE3-CFP): none of these compounds altered significantly; ratio of FRET to CFP emission in media of YFP-apoE3-CFP cells (YFP-apoE3-CFP): none of these compounds altered significantly; cytotoxicity (MTT assay) (YFP-apoE4-CFP cells): did not cause significant cytotoxicity; lysosomal leakage, cells with medium alone or medium containing apoE3 plus Aβ1-42 (Neuro-2a cells [1]): no significant effect; apoE4 potentiation of Aβ-induced lysosomal leakage (Neuro-2a cells [1]; 5 μM, apoE4 conditioned medium, Aβ1-42 20 μM): block; also recorded: abolish; apoptosis, cells with medium alone or medium containing apoE3 plus Aβ1-42 (Neuro-2a cells [2]): no significant effect; apoE4 potentiation of Aβ-induced apoptosis (Neuro-2a cells [2]; apoE4 conditioned medium, Aβ1-42): block; also recorded: abolish

Q: Which results are given for `Cc1cc(Cl)cc2sc(-c3sc4cc(Cl)cc(C)c4c3OS(=O)(=O)O)c(OS(=O)(=O)O)c12` [GIND-111]?
A: ratio of FRET to CFP emission in the cells expressing YFP-apoE4-CFP (YFP-apoE4-CFP): decreased significantly; ratio of FRET to CFP emission in media of YFP-apoE4-CFP cells (YFP-apoE4-CFP): decreased significantly; ratio of FRET to CFP emission in cells expressing YFP-apoE3-CFP (YFP-apoE3-CFP): none of these compounds altered significantly; ratio of FRET to CFP emission in media of YFP-apoE3-CFP cells (YFP-apoE3-CFP): none of these compounds altered significantly; cytotoxicity (MTT assay) (YFP-apoE4-CFP cells): did not cause significant cytotoxicity
